Measured values published in patent publication US20130197077A1, “Bicyclic Furanones with Low Toxicity for Microbial Control” (priority 2012, published 2013).

Experiments:
[1] = test system: SK-N-SH human neuroblastoma; experiment: Cytotoxicity to mammalian cells, survival (%) by OD450; assay type: cell-based; conditions: 100 μM; 0 h, 24 h and 48 h recovery after removal of drugs
Description: (§1) In this test, the mammalian cells used were 3T3 mouse fibroblasts and SK-N-SH human neuroblastomas, and 0 h, 24 h, and 48 h, refer to recovery time of cells after removal of drugs. At the beginning of the experiment, the survival of the cells is assumed to be 100 percent. The survival percentage is calculated using the following formula: […]
(§2) The sample OD was obtained from the wells containing cells and drugs, and the control OD was obtained from wells containing cells+1% DMSO.

3T3 mouse fibroblasts = experiment: as above; assay type: cell-based; conditions: 100 μM; 0 h, 24 h and 48 h recovery after removal of drugs
Description: as §1, §2

E. coli RP437 = test system: E. coli RP437
Description: FIG. 10 is a graph comparing the cytotoxicity of the exemplary bicyclic brominated furanones according to the present invention verses an exemplary conventional brominated furanone relative to E. Coli RP437;

Question: With `CC1=C(Br)/C(=C/Br)OC1=O` [BF8] as the molecule, how does the “cytotoxicity to SK-N-SH human neuroblastomas” value [1] read?
Answer: cytotoxic

Question: And the “cytotoxicity to 3T3 mouse fibroblasts” value (3T3 mouse fibroblasts)?
Answer: cytotoxic

Question: What about the “toxicity to the growth of E. coli RP437” value (E. coli RP437) of the same molecule?
Answer: more toxic
